{
  "source": "ChEMBL document CHEMBL1201862",
  "about": "“PubChem BioAssay data set” (2004)",
  "key": {"Genome polyprotein": {"target": "Genome polyprotein (dengue virus type 2, UniProt P29990)", "experiment": "flavivirus cap methylation enzyme inhibition – biochemical, confirmation dose response, primary screen (AID 588689)", "format": "functional"}, "DNA topoisomerase": {"target": "DNA topoisomerase (Yersinia pestis, UniProt A0A2S9PM60)", "sequence (A0A2S9PM60 whole entry)": "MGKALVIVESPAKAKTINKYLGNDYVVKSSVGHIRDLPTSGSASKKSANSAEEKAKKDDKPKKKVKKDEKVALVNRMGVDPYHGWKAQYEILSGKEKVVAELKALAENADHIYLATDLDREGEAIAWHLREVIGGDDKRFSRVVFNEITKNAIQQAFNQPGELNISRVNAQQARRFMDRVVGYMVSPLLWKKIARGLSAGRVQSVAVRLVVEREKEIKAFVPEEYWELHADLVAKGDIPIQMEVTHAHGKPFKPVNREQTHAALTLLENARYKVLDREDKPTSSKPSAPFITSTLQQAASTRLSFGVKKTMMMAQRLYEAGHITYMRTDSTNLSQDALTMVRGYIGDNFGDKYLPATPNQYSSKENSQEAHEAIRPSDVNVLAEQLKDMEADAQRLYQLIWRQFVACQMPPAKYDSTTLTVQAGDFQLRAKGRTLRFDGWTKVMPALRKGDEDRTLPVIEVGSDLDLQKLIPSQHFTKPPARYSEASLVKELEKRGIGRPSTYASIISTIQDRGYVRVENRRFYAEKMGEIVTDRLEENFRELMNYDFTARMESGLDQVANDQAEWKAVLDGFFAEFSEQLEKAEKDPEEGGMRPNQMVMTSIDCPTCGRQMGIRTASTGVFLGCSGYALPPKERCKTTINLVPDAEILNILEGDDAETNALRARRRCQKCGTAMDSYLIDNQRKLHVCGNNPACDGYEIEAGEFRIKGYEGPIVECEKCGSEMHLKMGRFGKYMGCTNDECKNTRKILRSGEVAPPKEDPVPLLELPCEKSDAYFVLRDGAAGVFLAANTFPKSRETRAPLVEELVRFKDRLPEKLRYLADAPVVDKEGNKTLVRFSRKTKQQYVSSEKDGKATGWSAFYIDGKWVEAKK", "experiment": "Yersinia topoisomerase I cleavage product accumulation – biochemical, cherry-pick, dose response (AID 588525)"}, "[1]": {"target": "T1, Zinc finger protein mex-5 (Caenorhabditis elegans, UniProt Q9XUB2)", "T1 sequence (Q9XUB2 whole entry)": "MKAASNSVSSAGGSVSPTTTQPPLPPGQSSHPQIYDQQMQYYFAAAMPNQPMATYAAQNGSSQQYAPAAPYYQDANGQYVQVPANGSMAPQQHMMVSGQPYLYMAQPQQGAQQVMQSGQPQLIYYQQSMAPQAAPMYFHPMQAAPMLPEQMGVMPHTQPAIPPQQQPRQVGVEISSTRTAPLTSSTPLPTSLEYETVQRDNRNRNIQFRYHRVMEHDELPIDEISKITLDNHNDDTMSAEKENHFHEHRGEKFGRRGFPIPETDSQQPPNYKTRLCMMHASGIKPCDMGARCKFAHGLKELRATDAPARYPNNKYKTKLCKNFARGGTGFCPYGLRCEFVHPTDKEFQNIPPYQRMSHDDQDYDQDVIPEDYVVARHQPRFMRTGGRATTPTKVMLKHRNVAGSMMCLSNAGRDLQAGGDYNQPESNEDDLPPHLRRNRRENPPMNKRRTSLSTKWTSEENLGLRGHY", "experiment": "potency of MEX-5 RNA-binding blockers – biochemical, C. elegans, fluorescence polarization, dose response (AID 1960)"}, "[2]": {"target": "T2, RNA-binding protein pos-1 (Caenorhabditis elegans, UniProt G5EF15)", "T2 sequence (G5EF15 whole entry)": "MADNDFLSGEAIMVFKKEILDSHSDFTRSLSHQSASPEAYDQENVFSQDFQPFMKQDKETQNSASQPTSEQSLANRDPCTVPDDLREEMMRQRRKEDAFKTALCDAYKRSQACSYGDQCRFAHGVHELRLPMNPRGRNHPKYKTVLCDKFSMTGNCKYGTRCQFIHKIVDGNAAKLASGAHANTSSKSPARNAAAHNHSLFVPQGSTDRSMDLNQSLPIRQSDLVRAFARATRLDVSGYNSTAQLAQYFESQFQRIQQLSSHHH", "experiment": "disruptors of C. elegans POS-1 RNA interaction – biochemical, fluorescence polarization, dose response (AID 1964);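 note: purified POS-1 fused to maltose binding protein made in E. coli; potency of compounds blocking POS-1 binding to fluorescent RNA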"}, "Cysteine protease ATG4B": {"target": "Cysteine protease ATG4B (Homo sapiens, UniProt Q9Y4P1)", "format": "functional"}, "Phospholipase A2": {"target": "Phospholipase A2 (Homo sapiens, UniProt P04054)", "format": "functional"}, "[3]": {"experiment": "fluconazole-exposed Candida albicans growth modulators – fluorescence, retest, confirmation (AID 2467)", "format": "functional, cell-based"}, "[4]": {"target": "ATP-dependent molecular chaperone HSP82 (Candida albicans (strain WO-1) (Yeast), UniProt C4YTQ8)", "sequence (C4YTQ8 whole entry)": "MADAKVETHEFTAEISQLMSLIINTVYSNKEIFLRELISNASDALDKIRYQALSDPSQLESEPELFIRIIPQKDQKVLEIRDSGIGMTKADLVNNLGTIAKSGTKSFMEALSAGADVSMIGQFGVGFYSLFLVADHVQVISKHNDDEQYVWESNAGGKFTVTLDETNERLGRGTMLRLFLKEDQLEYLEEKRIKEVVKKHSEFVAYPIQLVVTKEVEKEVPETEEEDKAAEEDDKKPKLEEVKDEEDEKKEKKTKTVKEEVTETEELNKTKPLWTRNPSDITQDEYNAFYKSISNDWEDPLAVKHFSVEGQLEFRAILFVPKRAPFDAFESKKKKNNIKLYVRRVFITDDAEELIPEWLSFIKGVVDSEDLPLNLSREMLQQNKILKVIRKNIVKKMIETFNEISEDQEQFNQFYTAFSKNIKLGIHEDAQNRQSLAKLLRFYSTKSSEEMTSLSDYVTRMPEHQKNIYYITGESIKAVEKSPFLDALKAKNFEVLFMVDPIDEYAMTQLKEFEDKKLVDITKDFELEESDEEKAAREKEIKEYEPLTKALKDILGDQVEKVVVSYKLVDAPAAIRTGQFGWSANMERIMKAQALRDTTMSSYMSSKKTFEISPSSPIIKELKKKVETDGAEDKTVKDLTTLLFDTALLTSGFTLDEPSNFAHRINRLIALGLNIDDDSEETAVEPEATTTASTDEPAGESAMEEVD", "experiment": "steroid-induced GRE reporter decrease in yeast – S. cerevisiae, luminescence, Hsp90 inhibitor project, dose response (AID 2400);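 note: beta-galactosidase luminescence from glucocorticoid response element reporter as proxy for Hsp90 function; inhibitor potency where signal loss means Hsp90 inhibition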", "format": "functional, cell-based"}, "Exodeoxyribonuclease V": {"target": "Exodeoxyribonuclease V (Escherichia coli (strain K12), UniProt P04993+P07648+P08394)", "sequence (P04993 whole entry)": "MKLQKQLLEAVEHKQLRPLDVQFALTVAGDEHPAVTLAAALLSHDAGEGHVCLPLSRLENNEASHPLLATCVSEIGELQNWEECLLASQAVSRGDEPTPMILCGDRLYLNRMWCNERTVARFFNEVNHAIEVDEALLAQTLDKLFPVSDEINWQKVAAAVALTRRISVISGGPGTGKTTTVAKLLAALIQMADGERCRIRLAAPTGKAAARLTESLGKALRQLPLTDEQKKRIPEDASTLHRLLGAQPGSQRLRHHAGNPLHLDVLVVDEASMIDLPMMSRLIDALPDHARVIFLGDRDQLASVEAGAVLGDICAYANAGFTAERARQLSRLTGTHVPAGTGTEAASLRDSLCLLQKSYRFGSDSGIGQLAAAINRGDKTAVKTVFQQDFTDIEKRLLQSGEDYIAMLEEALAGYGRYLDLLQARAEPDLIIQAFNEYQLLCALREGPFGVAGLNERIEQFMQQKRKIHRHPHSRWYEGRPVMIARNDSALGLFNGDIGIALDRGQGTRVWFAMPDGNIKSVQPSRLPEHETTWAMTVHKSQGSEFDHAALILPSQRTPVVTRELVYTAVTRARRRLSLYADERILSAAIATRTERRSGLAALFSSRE", "sequence (P07648 whole entry)": "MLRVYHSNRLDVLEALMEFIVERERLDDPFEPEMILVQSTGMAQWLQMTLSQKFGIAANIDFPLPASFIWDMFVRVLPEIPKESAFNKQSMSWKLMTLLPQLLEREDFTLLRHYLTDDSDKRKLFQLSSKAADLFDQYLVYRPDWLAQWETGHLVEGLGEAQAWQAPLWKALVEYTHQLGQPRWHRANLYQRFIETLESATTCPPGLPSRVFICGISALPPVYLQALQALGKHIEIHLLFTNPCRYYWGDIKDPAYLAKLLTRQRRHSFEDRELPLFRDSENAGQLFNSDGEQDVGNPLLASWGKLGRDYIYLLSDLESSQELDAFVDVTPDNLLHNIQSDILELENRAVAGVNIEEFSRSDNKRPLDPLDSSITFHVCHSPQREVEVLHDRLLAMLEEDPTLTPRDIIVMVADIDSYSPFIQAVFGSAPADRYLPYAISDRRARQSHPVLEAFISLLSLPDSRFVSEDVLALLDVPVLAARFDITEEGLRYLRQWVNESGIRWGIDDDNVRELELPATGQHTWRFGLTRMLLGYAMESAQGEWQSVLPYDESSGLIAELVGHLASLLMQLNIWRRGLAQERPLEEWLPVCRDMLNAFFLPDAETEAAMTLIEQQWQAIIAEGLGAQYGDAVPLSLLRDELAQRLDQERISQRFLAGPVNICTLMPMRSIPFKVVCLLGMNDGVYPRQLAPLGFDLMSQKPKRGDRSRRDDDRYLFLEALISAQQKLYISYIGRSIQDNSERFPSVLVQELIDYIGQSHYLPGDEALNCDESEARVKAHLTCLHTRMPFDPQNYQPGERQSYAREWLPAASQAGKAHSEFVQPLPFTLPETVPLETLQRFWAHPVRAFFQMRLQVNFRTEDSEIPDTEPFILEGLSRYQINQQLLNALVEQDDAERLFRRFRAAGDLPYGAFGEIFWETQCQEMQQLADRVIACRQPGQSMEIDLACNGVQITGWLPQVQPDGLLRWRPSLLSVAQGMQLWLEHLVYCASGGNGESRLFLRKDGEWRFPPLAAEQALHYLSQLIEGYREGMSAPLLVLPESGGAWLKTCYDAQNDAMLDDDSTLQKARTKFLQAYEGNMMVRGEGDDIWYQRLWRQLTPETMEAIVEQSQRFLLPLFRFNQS", "sequence (P08394 whole entry)": "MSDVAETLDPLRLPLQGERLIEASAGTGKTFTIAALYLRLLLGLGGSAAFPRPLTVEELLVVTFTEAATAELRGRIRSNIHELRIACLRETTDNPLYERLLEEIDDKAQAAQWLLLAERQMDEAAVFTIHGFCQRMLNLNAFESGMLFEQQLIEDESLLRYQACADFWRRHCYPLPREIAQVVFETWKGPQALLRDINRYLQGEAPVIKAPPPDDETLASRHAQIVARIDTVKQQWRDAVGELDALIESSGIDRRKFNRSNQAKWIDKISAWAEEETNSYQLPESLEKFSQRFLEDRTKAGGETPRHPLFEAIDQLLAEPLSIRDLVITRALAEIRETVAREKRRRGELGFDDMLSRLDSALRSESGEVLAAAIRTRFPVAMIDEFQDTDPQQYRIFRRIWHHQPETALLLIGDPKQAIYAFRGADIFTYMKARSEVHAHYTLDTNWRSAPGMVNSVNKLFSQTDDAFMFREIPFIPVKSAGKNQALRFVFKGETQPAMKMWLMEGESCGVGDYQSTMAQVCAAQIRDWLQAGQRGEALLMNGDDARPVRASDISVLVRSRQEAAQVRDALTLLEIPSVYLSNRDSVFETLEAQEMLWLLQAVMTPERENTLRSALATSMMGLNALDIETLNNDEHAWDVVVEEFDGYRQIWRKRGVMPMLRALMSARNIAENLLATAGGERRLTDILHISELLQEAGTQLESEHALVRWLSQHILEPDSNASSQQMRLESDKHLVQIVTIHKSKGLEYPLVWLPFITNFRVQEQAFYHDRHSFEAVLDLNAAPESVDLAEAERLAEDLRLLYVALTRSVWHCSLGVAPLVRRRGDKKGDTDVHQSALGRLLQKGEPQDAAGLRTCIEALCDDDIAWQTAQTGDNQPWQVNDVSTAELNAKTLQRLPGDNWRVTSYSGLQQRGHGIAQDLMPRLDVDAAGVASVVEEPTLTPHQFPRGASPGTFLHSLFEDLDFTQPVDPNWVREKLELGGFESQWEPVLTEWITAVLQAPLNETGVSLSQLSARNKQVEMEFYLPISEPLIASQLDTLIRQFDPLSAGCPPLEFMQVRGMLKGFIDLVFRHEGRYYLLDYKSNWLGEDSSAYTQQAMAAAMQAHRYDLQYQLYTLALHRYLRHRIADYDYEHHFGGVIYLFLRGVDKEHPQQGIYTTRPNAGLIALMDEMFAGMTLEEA", "experiment": "RecBCD inhibition via phage-restricted bacterial growth – absorbance, V66 E. coli, mutant T4 phage, counter-screen for AddAB inhibitor project, dose response (AID 492957)", "format": "functional, cell-based, Escherichia coli str. K-12 substr. MG1655"}, "[5]": {"experiment": "Trypanosoma cruzi growth suppression in host cells – NIH3T3 host cells, beta-gal luminescence, confirmation (AID 2044);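 note: intracellular parasites grown in NIH/3T3 mouse fibroblasts as host cells; luminescent beta-galactosidase reporter signal from transgenic T. cruzi replicating inside host cells; inhibitors lower the luminescence signal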", "format": "functional, cell-based"}, "HEK293 [6]": {"tested_on": "HEK293", "experiment": "SAR Analysis of small molecule inhibitors of T-cell specific antigen receptor-induced NF-kB activation in a HEK-293T cell line using a luminescence assay - Set 2. [Related pubchem assays (depositor defined):AID435003, AID435012, AID489026]", "format": "functional, cell-based", "details": "Homo sapiens"}, "[7]": {"target": "Serine/threonine-protein phosphatase (Candida dubliniensis (strain CD36 / CBS 7987 / NCPF 3949 / NRRLY-17841) (Yeast), UniProt B9W6M3)", "sequence (B9W6M3 whole entry)": "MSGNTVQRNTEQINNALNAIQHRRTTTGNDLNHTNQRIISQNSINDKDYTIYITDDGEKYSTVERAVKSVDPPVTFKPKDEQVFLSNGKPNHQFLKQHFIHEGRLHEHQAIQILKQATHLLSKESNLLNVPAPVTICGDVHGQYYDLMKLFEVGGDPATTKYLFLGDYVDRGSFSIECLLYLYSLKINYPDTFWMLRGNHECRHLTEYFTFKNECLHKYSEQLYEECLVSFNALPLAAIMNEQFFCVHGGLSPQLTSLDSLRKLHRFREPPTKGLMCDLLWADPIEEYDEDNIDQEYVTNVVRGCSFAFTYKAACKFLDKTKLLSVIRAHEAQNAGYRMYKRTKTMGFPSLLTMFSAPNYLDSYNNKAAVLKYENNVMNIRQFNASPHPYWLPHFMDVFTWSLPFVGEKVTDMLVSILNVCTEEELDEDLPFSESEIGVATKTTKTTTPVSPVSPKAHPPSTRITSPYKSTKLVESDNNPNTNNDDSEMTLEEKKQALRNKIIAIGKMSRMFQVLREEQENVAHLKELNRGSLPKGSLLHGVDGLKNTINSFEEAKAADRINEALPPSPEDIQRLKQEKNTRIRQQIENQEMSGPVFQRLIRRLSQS", "experiment": "blockers of CaCl2-induced CDRE-lacZ signaling – S. cerevisiae, luminescence, secondary, dose response (AID 2388);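 note: yeast reporter cells carrying a calcineurin-responsive lacZ construct stimulated with calcium chloride; luminescent beta-galactosidase reporter signal in whole cells rather than isolated phosphatase activity; potency for inhibition where a drop in reporter signal means calcineurin blockade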", "format": "functional, cell-based"}, "[8]": {"target": "Heat shock protein HSP 90-alpha (Homo sapiens, UniProt P07900)", "format": "functional, organism-based"}, "[9]": {"experiment": "loss of viability in HepG2 cells – cell-based, CellTiter-Glo, cherry-picked, cytotoxicity control for Shn3 inhibitor project, dose response (AID 624134)", "format": "functional"}, "Jurkat [10]": {"tested_on": "Jurkat", "experiment": "SAR Analysis of small molecule inhibitors of T-cell specific antigen receptor-induced NF-kB activation in a Jurkat cell line using a luminescence assay - Set 2. [Related pubchem assays (depositor defined):AID435003, AID435012, AID465]", "format": "functional, cell-based", "details": "Homo sapiens"}, "[11]": {"experiment": "NIH-3T3 fibroblast cytotoxicity, dose response, cytotoxicity control, cell-based, fluorescence, Alamar Blue, secondary assay (AID 2327);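 note: NIH-3T3 mouse fibroblasts cultured with fluconazole at 8 µg/mL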", "format": "functional"}, "[12]": {"experiment": "MIN6 cell viability loss – mouse insulinoma, cytotoxicity control, dose response (AID 2122);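 note: confirmatory high-throughput counterscreen run to flag cytotoxic compounds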", "format": "functional"}, "HEK293 [13]": {"tested_on": "HEK293", "experiment": "SAR Analysis of small molecule inhibitors of T-cell specific antigen receptor-induced NF-kB activation in a HEK-293T cell line using a luminescence assay. [Related pubchem assays (depositor defined):AID435003, AID435012, AID489026]", "format": "functional, cell-based", "details": "Homo sapiens"}, "Jurkat [14]": {"tested_on": "Jurkat", "experiment": "SAR Analysis of small molecule inhibitors of T-cell specific antigen receptor-induced NF-kB activation in a Jurkat cell line using a luminescence assay. [Related pubchem assays (depositor defined):AID435003, AID435012, AID465]", "format": "functional, cell-based", "details": "Homo sapiens"}, "[15]": {"experiment": "reduction of Shn3 3'UTR-driven luciferase in osteoblasts – cell-based, Clone20 osteoblasts, firefly luciferase, cherry-picked, dose response (AID 624132)", "format": "functional"}, "cells [16]": {"experiment": "cells", "format": "functional, cell-based"}, "[17]": {"experiment": "NIH3T3 cell viability loss – ATP luminescence, mouse fibroblasts, counter-screen, dose response (AID 2010);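 note: cells exposed to compound for about 90 hours before reading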", "format": "functional, cell-based"}, "cells [18]": {"experiment": "cells", "format": "functional, cell-based", "remark": "listed apart in the source"}, "INS1": {"tested_on": "INS1", "experiment": "INS-1E survival protection against cytokine death – cell-based, luminescence, retest, dose response (AID 449756);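 note: cell death triggered by IL-1 beta plus TNF-alpha plus IFN-gamma mixture; protective hits raise ATP signal compared with cytokine alone wells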", "format": "functional", "details": "Rattus norvegicus"}, "[19]": {"experiment": "HEK-293T viability loss after treatment – luminescence, T-cell screen hits, cytotoxicity control for TCR NF-kB inhibitor project, dose response (AID 489026);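 note: cells exposed to compound about 14 hours before the viability readout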", "format": "functional, cell-based"}, "[20]": {"experiment": "non-specific 3'UTR reporter inhibition in Clone20-Shn3RL – cell-based, Renilla luciferase, cherry-picked, counter-screen for Shn3 inhibitor project, dose response (AID 624133)", "format": "functional"}, "[21]": {"experiment": "Counterscreen for AddAB inhibitors: absorbance-based bacterial cell-based high throughput dose response assay for inhibitors of bacterial viability. [Related pubchem assays (depositor defined):AID435030, AID449728, AID449731, AID488942, AID488955, AID488956]", "format": "functional"}, "[22]": {"experiment": "decrease of insulin promoter-GFP reporter – imaging, high-content screening, mouse beta cells (AID 1628)", "format": "functional", "details": "MIN6"}},
  "note": "Activity calls are given as the source filed them.",
  "data": [
    {"smiles": "C=CCOc1cccc(C2C(C(=O)c3cc4ccccc4o3)=C(O)C(=O)N2c2cc(C)on2)c1", "note": "(stereo not drawn)", "values": [
      {"measurement": "IC50", "setting": "Genome polyprotein", "value": "48.6 µM (active)"},
      {"measurement": "AC50", "setting": "DNA topoisomerase", "value": "7.35 µM (active)"},
      {"measurement": "EC50", "setting": "[1]", "value": "80.5 µM (active)"},
      {"measurement": "EC50", "setting": "[2]", "value": "> 300 µM (not active)"}
    ]},
    {"smiles": "CCCCCCCCCCCCCCCCCCNc1ccn(C2OC(COP(=O)(O)OCC3OC(n4cc(F)c(=O)[nH]c4=O)CC3O)C(O)C2O)c(=O)n1", "note": "(stereo not drawn)", "values": [
      {"measurement": "IC50", "setting": "Cysteine protease ATG4B", "value": "10.8 µM (active)"},
      {"measurement": "IC50", "setting": "Phospholipase A2", "value": "9.09 µM (active)"}
    ]},
    {"smiles": "CCCC(=O)NC(c1ccc(OC)cc1)c1ccc2cccnc2c1O", "note": "(stereo not drawn)", "values": [
      {"measurement": "EC50", "setting": "[3]", "value": "0.349 µM (active)"},
      {"measurement": "EC50", "setting": "[4]", "value": "> 160 µM (inactive)"},
      {"measurement": "IC50", "setting": "Exodeoxyribonuclease V", "value": "> 119 µM (inactive)"},
      {"measurement": "EC50", "setting": "[5]", "value": "0.527 µM (active)"},
      {"measurement": "IC50", "setting": "HEK293 [6]", "value": "3.64 µM (active)"},
      {"measurement": "EC50", "setting": "[7]", "value": "> 180 µM (inactive)"},
      {"measurement": "AC50", "setting": "[8]", "value": "4.08 µM (active)"},
      {"measurement": "AC50", "setting": "[9]", "value": "2.33 µM (active)"},
      {"measurement": "IC50", "setting": "Jurkat [10]", "value": "3.11 µM (active)"},
      {"measurement": "EC50", "setting": "[11]", "value": "41.4 µM (active)"},
      {"measurement": "IC50", "setting": "[12]", "value": "1.52 µM (active)"},
      {"measurement": "IC50", "setting": "HEK293 [13]", "value": "4.92 µM (active)"},
      {"measurement": "IC50", "setting": "Jurkat [14]", "value": "2.96 µM (active)"},
      {"measurement": "AC50", "setting": "[15]", "value": "1.18 µM (active)"},
      {"measurement": "EC50", "setting": "cells [16]", "value": "> 350 µM (not active)"},
      {"measurement": "EC50", "setting": "[17]", "value": "1.4 µM (active)"},
      {"measurement": "EC50", "setting": "cells [18]", "value": "6.31 µM (active)"},
      {"measurement": "AC50", "setting": "INS1", "value": "0.696 µM (active)"},
      {"measurement": "IC50", "setting": "[19]", "value": "> 80 µM (inactive)"},
      {"measurement": "AC50", "setting": "[20]", "value": "1.08 µM (active)"},
      {"measurement": "IC50", "setting": "[21]", "value": "> 119 µM (inactive)"},
      {"measurement": "IC50", "setting": "[22]", "value": "1.23 µM (active)"}
    ]}
  ]
}
